# Experimental data as given in patent US20080009418A1, “Selective Inhibitors” (Alchemia LTD., priority 2004, published 2008).
# Tests used:
# [1] = target: T1, Human neuropeptide Y (NPY-Y1) (Homo sapiens, UniProt P25929); experiment: Radioligand binding, human neuropeptide Y NPY-Y1 membranes, FlashPlate, [125I]-PYY; settings: compound at 10 μM; for A9: inhibition of radioligand binding: FlashPlate
# T1 construct: purchased Perkin Elmer Biosignal
# T1 sequence (P25929 1-384): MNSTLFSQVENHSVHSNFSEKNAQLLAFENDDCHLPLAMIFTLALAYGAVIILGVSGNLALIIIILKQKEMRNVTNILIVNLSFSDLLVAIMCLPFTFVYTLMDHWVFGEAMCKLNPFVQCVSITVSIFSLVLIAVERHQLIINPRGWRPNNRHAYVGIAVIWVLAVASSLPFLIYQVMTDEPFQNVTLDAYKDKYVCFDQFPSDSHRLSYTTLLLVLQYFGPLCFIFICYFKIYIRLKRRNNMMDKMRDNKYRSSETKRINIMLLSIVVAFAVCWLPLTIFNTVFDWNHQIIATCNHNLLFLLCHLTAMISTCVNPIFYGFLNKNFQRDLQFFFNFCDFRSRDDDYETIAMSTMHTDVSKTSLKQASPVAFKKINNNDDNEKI
# In short: (§1)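 Cloned human receptor membranes were coated onto FlashPlate wells and incubated with radioligand and compound (added from a 0.5 mM DMSO daughter plate) for 1 hour at room temperature in the dark. Scintillation counting gave percent inhibition, with DMSO defining total and reference ligand defining non-specific binding.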
# Human δ-opioid (DOP) = target: T2, Human δ-opioid (DOP) (Homo sapiens, UniProt P41143); experiment: Radioligand binding, human δ-opioid (DOP) membranes, FlashPlate, [3H]-Bremazocine; settings: compound at 10 μM; for A1: inhibition of radioligand binding: FlashPlate
# T2 construct: purchased Perkin Elmer Biosignal
# T2 sequence (P41143 whole entry): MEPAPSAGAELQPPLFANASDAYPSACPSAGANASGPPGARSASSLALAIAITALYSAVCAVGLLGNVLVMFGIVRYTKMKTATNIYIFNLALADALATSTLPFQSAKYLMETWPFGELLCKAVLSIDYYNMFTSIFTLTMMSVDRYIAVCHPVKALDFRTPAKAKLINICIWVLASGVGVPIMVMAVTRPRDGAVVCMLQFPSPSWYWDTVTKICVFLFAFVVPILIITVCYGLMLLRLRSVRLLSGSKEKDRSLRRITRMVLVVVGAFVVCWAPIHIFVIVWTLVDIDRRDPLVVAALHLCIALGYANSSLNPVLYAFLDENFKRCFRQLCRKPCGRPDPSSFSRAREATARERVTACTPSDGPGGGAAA
# In short: as §1
# Mouse urotensin (mUR2) = target: T3, Mouse urotensin (mUR2) (Mus musculus, UniProt Q8VIH9); experiment: Radioligand binding, mouse urotensin mUR2 membranes, FlashPlate, [125I]-Urotensin II; settings: compound at 10 μM; for A11: inhibition of radioligand binding: FlashPlate
# T3 construct: purchased Perkin Elmer Biosignal
# T3 sequence (Q8VIH9 1-385): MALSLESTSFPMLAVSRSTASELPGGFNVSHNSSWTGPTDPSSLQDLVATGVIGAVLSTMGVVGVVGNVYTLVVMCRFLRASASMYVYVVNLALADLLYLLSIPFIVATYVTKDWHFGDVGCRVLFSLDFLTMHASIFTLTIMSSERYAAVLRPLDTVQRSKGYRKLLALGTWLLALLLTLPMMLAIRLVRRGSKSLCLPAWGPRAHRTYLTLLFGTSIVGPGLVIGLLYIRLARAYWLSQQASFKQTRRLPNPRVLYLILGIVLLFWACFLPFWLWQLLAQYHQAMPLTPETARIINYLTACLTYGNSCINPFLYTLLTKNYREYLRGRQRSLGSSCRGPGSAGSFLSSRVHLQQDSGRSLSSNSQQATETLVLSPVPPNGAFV
# In short: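 Cloned mouse urotensin (mUR2) receptor membranes from Perkin Elmer Biosignal were immobilized in FlashPlate microplates using a proprietary coating. Each well got 19.5 μl buffer, then 0.5 μl of DMSO, reference ligand, or compound. Adding 5 μl of [125I]-Urotensin II, diluted to 5× final concentration in binding buffer, started binding. Plates were sealed with TopSeal-A and incubated 1 hour at room temperature in the dark. Wells were counted for 30 seconds each on a TopCount after a 60-second delay, and percentage inhibition was calculated.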
# Human melanocortin (MC5) = target: T4, Human melanocortin (MC5) (Homo sapiens, UniProt P33032); experiment: Radioligand binding, human melanocortin MC5 membranes, FlashPlate, [125I]-NDP-αMSH; settings: compound at 10 μM; for A5: inhibition of radioligand binding: FlashPlate
# T4 construct: purchased Perkin Elmer Biosignal
# T4 sequence (P33032 whole entry): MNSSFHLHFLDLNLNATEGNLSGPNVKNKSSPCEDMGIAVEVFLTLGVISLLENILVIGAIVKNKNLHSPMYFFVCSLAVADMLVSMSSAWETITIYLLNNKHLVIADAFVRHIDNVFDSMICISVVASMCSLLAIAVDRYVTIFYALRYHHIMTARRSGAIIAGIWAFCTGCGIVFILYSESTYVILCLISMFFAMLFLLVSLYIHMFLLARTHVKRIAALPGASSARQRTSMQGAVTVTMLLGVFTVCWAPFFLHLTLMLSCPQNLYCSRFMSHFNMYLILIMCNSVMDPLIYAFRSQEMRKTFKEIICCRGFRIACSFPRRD
# In short: as §1
# Human opioid (ORL1) = target: T5, Human opioid (ORL1) (Homo sapiens, UniProt P41146); experiment: Radioligand binding, human opioid ORL1 membranes, FlashPlate, [125I]-Nociceptin; settings: compound at 10 μM; for A10: inhibition of radioligand binding: FlashPlate
# T5 construct: purchased Perkin Elmer Biosignal
# T5 sequence (P41146 whole entry): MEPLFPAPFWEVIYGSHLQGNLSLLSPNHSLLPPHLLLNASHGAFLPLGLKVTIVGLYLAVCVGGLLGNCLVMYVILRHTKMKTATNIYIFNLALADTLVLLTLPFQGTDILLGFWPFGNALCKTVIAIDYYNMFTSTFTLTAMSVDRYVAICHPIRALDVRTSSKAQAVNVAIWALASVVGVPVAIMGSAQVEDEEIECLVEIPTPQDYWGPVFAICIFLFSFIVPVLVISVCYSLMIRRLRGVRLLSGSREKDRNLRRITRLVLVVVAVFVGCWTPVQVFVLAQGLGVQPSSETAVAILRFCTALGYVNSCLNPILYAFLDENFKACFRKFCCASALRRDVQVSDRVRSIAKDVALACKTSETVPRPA
# In short: as §1
# Human Melanocortin (MC4) = target: T6, Human Melanocortin (MC4) (Homo sapiens, UniProt P32245); experiment: Radioligand binding, human melanocortin MC4 membranes, FlashPlate, [125I]-NDP-αMSH; settings: compound at 10 μM; for A4: inhibition of radioligand binding: FlashPlate
# T6 construct: purchased Perkin Elmer Biosignal
# T6 sequence (P32245 whole entry): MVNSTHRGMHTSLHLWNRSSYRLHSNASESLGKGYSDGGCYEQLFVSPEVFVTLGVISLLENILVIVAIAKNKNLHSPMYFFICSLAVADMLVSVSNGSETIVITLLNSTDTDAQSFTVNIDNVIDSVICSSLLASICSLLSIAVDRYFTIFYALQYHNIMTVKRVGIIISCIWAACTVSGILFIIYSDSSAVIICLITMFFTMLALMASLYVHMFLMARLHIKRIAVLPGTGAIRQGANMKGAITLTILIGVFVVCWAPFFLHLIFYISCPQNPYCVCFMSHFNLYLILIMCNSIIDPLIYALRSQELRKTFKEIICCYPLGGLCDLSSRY
# In short: as §1
# Human κ-Opioid (KOP) = target: T7, Human κ-Opioid (KOP) (Homo sapiens, UniProt P41145); experiment: Radioligand binding, human κ-opioid (KOP) membranes, filtration, [3H]-Diprenorphine; settings: compound at 10 μM; for A2: inhibition of radioligand binding: filtration
# T7 construct: purchased Perkin Elmer Biosignal
# T7 sequence (P41145 whole entry): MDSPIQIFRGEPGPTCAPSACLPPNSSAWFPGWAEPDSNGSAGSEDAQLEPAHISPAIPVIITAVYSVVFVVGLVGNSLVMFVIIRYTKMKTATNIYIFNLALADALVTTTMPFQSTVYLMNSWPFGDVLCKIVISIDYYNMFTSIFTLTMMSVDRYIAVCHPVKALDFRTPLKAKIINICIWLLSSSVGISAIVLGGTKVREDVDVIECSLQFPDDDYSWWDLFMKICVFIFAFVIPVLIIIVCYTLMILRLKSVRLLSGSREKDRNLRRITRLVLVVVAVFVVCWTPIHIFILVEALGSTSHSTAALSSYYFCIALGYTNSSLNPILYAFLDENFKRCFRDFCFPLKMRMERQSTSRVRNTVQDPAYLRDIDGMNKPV
# In short: (§2)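 Membranes from cloned human receptors were incubated with compound and radioligand for 1 hour at room temperature. Bound ligand was collected on 0.3% PEI-soaked filters, washed with cold 50 mM Tris-HCl pH 7.4, and counted by scintillation. Percent inhibition was computed against DMSO totals and reference-ligand nonspecific wells.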
# Human μ-opioid (MOP) = target: T8, Human μ-opioid (MOP) (Homo sapiens, UniProt P35372); experiment: Radioligand binding, human μ-opioid (MOP) membranes, FlashPlate, [3H]-Naloxone; settings: compound at 10 μM; for A7: inhibition of radioligand binding: FlashPlate
# T8 construct: purchased Perkin Elmer Biosignal
# T8 sequence (P35372 whole entry): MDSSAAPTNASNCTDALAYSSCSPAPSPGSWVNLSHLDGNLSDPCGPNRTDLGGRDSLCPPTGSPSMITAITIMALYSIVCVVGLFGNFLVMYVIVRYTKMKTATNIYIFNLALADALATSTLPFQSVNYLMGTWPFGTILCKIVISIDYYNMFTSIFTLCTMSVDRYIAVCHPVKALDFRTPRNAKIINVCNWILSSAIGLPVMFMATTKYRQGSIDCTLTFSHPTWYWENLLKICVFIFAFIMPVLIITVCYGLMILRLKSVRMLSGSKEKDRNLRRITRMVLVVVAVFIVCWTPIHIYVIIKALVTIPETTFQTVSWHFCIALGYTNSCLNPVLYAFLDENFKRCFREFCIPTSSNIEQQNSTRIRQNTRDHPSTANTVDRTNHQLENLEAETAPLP
# In short: as §1
# Human Melanocortin (MC3) = target: T9, Human Melanocortin (MC3) (Homo sapiens, UniProt P41968); experiment: Radioligand binding, human melanocortin MC3 membranes, FlashPlate, [125I]-NDP-αMSH; settings: compound at 10 μM; for A3: inhibition of radioligand binding: FlashPlate
# T9 construct: purchased Perkin Elmer Biosignal
# T9 sequence (P41968 whole entry): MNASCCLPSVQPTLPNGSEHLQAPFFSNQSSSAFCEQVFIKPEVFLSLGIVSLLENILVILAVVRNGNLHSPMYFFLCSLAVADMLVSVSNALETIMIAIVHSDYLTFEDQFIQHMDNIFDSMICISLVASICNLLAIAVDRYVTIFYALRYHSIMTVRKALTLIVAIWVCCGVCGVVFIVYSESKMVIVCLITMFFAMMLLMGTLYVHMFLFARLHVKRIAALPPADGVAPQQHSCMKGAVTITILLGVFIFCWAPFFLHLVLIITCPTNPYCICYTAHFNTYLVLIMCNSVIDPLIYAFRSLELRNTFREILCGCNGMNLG
# In short: as §1
# Human neurokinin (NK1) = target: T10, Human neurokinin (NK1) (Homo sapiens, UniProt P25103); experiment: Radioligand binding, human neurokinin NK1 membranes, filtration, [125I]-Substance P; settings: compound at 10 μM; for A8: inhibition of radioligand binding: filtration
# T10 construct: purchased Perkin Elmer Biosignal
# T10 sequence (P25103 whole entry): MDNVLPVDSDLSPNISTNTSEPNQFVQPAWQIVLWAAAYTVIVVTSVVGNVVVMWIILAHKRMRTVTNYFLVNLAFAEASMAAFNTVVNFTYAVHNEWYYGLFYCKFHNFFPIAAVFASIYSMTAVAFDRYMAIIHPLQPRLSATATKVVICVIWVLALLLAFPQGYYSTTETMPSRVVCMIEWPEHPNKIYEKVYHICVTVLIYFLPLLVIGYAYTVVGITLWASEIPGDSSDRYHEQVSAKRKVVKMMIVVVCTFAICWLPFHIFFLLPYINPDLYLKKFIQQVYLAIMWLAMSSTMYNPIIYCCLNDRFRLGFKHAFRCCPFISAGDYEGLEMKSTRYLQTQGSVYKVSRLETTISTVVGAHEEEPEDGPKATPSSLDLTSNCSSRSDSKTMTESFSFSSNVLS
# In short: as §2
# [2] = target: T11, Human melanin-concentrating hormone (MCH1) (Homo sapiens, UniProt Q99705); experiment: Radioligand binding, human melanin-concentrating hormone MCH1 membranes, FlashPlate, [125I]-S36057; settings: compound at 10 μM; for A6: inhibition of radioligand binding: [125I]-S36057, FlashPlate
# T11 construct: purchased Perkin Elmer Biosignal
# T11 sequence (Q99705 whole entry): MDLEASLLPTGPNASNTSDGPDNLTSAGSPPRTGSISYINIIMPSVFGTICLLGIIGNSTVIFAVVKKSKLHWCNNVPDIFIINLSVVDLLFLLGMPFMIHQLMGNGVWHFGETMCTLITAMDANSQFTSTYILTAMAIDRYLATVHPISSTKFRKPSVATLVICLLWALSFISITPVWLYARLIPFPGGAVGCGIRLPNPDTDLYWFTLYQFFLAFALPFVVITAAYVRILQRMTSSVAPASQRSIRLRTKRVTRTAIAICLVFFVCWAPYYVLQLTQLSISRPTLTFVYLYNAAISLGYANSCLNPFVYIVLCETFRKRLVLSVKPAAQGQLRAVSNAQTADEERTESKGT
# In short: as §1
smiles,measurement,setting,value
COCC1OC(OCc2ccccc2)C(NC(=O)CNC(=N)N)C(OCc2ccc3ccccc3c2)C1O (stereo not shown) [compound 189],A9: inhibition of radioligand binding,[1]; [125I]-PYY,− (“−” indicates less than 50% inhibition at 10 μM)
same,A1: inhibition of radioligand binding,Human δ-opioid (DOP); [3H]-Bremazocine,− (“−” indicates less than 50% inhibition at 10 μM)
same,A11: inhibition of radioligand binding,Mouse urotensin (mUR2); [125I]-Urotensin II,− (“−” indicates less than 50% inhibition at 10 μM)
same,A5: inhibition of radioligand binding,Human melanocortin (MC5); [125I]-NDP-αMSH,+ (“+” indicates greater than 50% inhibition at 10 μM)
same,A10: inhibition of radioligand binding,Human opioid (ORL1); [125I]-Nociceptin,− (“−” indicates less than 50% inhibition at 10 μM)
same,A4: inhibition of radioligand binding,Human Melanocortin (MC4); [125I]-NDP-αMSH,+ (“+” indicates greater than 50% inhibition at 10 μM)
same,A2: inhibition of radioligand binding,Human κ-Opioid (KOP); [3H]-Diprenorphine,− (“−” indicates less than 50% inhibition at 10 μM)
same,A7: inhibition of radioligand binding,Human μ-opioid (MOP); [3H]-Naloxone,− (“−” indicates less than 50% inhibition at 10 μM)
same,A3: inhibition of radioligand binding,Human Melanocortin (MC3); [125I]-NDP-αMSH,+ (“+” indicates greater than 50% inhibition at 10 μM)
same,A8: inhibition of radioligand binding,Human neurokinin (NK1); [125I]-Substance P,+ (“+” indicates greater than 50% inhibition at 10 μM)
same,A6: inhibition of radioligand binding,[2],+ (“+” indicates greater than 50% inhibition at 10 μM)
CO[C@H]1[C@H](O)[C@@H](COCc2ccc3ccccc3c2)OC(OCc2ccc3ccccc3c2)[C@@H]1NC(=O)CCCNC(=N)N (stereo partly shown) [compound 73],A9 radioligand binding inhibition,[1]; human NPY-Y1 membranes,− (“−” indicates less than 50% inhibition at 10 μM)
same,A1 radioligand binding inhibition,Human δ-opioid (DOP); human δ-opioid (DOP) membranes,− (“−” indicates less than 50% inhibition at 10 μM)
same,A11 radioligand binding inhibition,Mouse urotensin (mUR2); mouse urotensin mUR2 membranes,− (“−” indicates less than 50% inhibition at 10 μM)
same,A5 radioligand binding inhibition,Human melanocortin (MC5); human melanocortin MC5 membranes,+ (“+” indicates greater than 50% inhibition at 10 μM)
same,A10 radioligand binding inhibition,Human opioid (ORL1); human ORL1 membranes,+ (“+” indicates greater than 50% inhibition at 10 μM)
same,A4 radioligand binding inhibition,Human Melanocortin (MC4); human melanocortin MC4 membranes,− (“−” indicates less than 50% inhibition at 10 μM)
same,A2 radioligand binding inhibition,Human κ-Opioid (KOP); human κ-opioid (KOP) membranes,+ (“+” indicates greater than 50% inhibition at 10 μM)
same,A7 radioligand binding inhibition,Human μ-opioid (MOP); human μ-opioid (MOP) membranes,+ (“+” indicates greater than 50% inhibition at 10 μM)
same,A3 radioligand binding inhibition,Human Melanocortin (MC3); human melanocortin MC3 membranes,− (“−” indicates less than 50% inhibition at 10 μM)
same,A8 radioligand binding inhibition,Human neurokinin (NK1); human neurokinin NK1 membranes,+ (“+” indicates greater than 50% inhibition at 10 μM)
same,A6 radioligand binding inhibition,[2]; human MCH1 membranes,− (“−” indicates less than 50% inhibition at 10 μM)
COCC1OC(OCc2ccccc2)C(NC(=O)CNC(=N)N)C(OCc2ccc(Cl)cc2)C1O (stereo not shown) [compound 177],"A9 radioligand binding, percentage inhibition",[1]; [125I]-PYY,− (“−” indicates less than 50% inhibition at 10 μM)
same,"A1 radioligand binding, percentage inhibition",Human δ-opioid (DOP); [3H]-Bremazocine,− (“−” indicates less than 50% inhibition at 10 μM)
same,"A11 radioligand binding, percentage inhibition",Mouse urotensin (mUR2); [125I]-Urotensin II,− (“−” indicates less than 50% inhibition at 10 μM)
same,"A5 radioligand binding, percentage inhibition",Human melanocortin (MC5); [125I]-NDP-αMSH,+ (“+” indicates greater than 50% inhibition at 10 μM)
same,"A10 radioligand binding, percentage inhibition",Human opioid (ORL1); [125I]-Nociceptin,− (“−” indicates less than 50% inhibition at 10 μM)
same,"A4 radioligand binding, percentage inhibition",Human Melanocortin (MC4); [125I]-NDP-αMSH,+ (“+” indicates greater than 50% inhibition at 10 μM)
same,"A2 radioligand binding, percentage inhibition",Human κ-Opioid (KOP); [3H]-Diprenorphine,− (“−” indicates less than 50% inhibition at 10 μM)
same,"A7 radioligand binding, percentage inhibition",Human μ-opioid (MOP); [3H]-Naloxone,− (“−” indicates less than 50% inhibition at 10 μM)
same,"A3 radioligand binding, percentage inhibition",Human Melanocortin (MC3); [125I]-NDP-αMSH,+ (“+” indicates greater than 50% inhibition at 10 μM)
same,"A8 radioligand binding, percentage inhibition",Human neurokinin (NK1); [125I]-Substance P,+ (“+” indicates greater than 50% inhibition at 10 μM)
same,"A6 radioligand binding, percentage inhibition",[2]; [125I]-S36057,− (“−” indicates less than 50% inhibition at 10 μM)
CSC1OC(COCc2cccc(N)c2)C(O)C(OCc2ccccc2)C1NC(=O)Cc1ccccc1 (stereo not shown) [compound 325],"A9: inhibition of radioligand binding, human neuropeptide Y (NPY-Y1)",[1]; [125I]-PYY,− (“−” indicates less than 50% inhibition at 10 μM)
same,"A1: inhibition of radioligand binding, human δ-opioid (DOP)",Human δ-opioid (DOP); [3H]-Bremazocine,− (“−” indicates less than 50% inhibition at 10 μM)
same,"A11: inhibition of radioligand binding, mouse urotensin (mUR2)",Mouse urotensin (mUR2); [125I]-Urotensin II,− (“−” indicates less than 50% inhibition at 10 μM)
same,"A5: inhibition of radioligand binding, human melanocortin (MC5)","Human melanocortin (MC5); [125I]-NDP-αMSH, 10 µM",+ (“+” indicates greater than 50% inhibition at 10 μM)
same,"A10: inhibition of radioligand binding, human opioid (ORL1)",Human opioid (ORL1); [125I]-Nociceptin,− (“−” indicates less than 50% inhibition at 10 μM)
same,"A4: inhibition of radioligand binding, human melanocortin (MC4)",Human Melanocortin (MC4); [125I]-NDP-αMSH,− (“−” indicates less than 50% inhibition at 10 μM)
same,"A2: inhibition of radioligand binding, human κ-opioid (KOP)",Human κ-Opioid (KOP); [3H]-Diprenorphine,− (“−” indicates less than 50% inhibition at 10 μM)
same,"A7: inhibition of radioligand binding, human μ-opioid (MOP)",Human μ-opioid (MOP); [3H]-Naloxone,− (“−” indicates less than 50% inhibition at 10 μM)
same,"A3: inhibition of radioligand binding, human melanocortin (MC3)",Human Melanocortin (MC3); [125I]-NDP-αMSH,− (“−” indicates less than 50% inhibition at 10 μM)
same,"A8: inhibition of radioligand binding, human neurokinin (NK1)",Human neurokinin (NK1); [125I]-Substance P,+ (“+” indicates greater than 50% inhibition at 10 μM)
same,"A6: inhibition of radioligand binding, human melanin-concentrating hormone (MCH1)",[2]; [125I]-S36057,− (“−” indicates less than 50% inhibition at 10 μM)
COCC1OC(OCc2ccc(Cl)cc2)C(NC(=O)CN)C(OCc2ccc(-c3ccccc3)cc2)C1O (stereo not shown) [compound 205],A9: inhibition of radioligand binding,[1]; [125I]-PYY,− (“−” indicates less than 50% inhibition at 10 μM)
same,A1: inhibition of radioligand binding,Human δ-opioid (DOP); [3H]-Bremazocine,− (“−” indicates less than 50% inhibition at 10 μM)
same,A11: inhibition of radioligand binding,Mouse urotensin (mUR2); [125I]-Urotensin II,− (“−” indicates less than 50% inhibition at 10 μM)
same,A5: inhibition of radioligand binding,Human melanocortin (MC5); [125I]-NDP-αMSH,+ (“+” indicates greater than 50% inhibition at 10 μM)
same,A10: inhibition of radioligand binding,Human opioid (ORL1); [125I]-Nociceptin,− (“−” indicates less than 50% inhibition at 10 μM)
same,A4: inhibition of radioligand binding,Human Melanocortin (MC4); [125I]-NDP-αMSH,+ (“+” indicates greater than 50% inhibition at 10 μM)
same,A2: inhibition of radioligand binding,Human κ-Opioid (KOP); [3H]-Diprenorphine,− (“−” indicates less than 50% inhibition at 10 μM)
same,A7: inhibition of radioligand binding,Human μ-opioid (MOP); [3H]-Naloxone,− (“−” indicates less than 50% inhibition at 10 μM)
same,A3: inhibition of radioligand binding,Human Melanocortin (MC3); [125I]-NDP-αMSH,− (“−” indicates less than 50% inhibition at 10 μM)
same,A8: inhibition of radioligand binding,Human neurokinin (NK1); [125I]-Substance P,+ (“+” indicates greater than 50% inhibition at 10 μM)
same,A6: inhibition of radioligand binding,[2],− (“−” indicates less than 50% inhibition at 10 μM)
